Data published in patent US10144730B2, “Inhibitors of c-Jun-N-terminal kinase (JNK)” (Dana-Farber Cancer Institute, Inc., priority 2011, dated 2018).
pEC50, pIC50: −log10 of the molar value.

Key:
[1] = molecular target: JNK2 (Homo sapiens, UniProt P45984); assay: Biochemical JNK2 kinase inhibition (Z'-lyte format); settings: Table 2
[2] = test system: JNK; assay: Binding kinetics (pulse-chase) assay, ATP-biotin labeling of JNK in A375 cells; format: cell-based; settings: 1 μM compound
Experimental: A375 cells were incubated with inhibitors for the indicated amount of time after which cell lysates were prepared and labeled with ATP-biotin. Biotinylated proteins were pulled down with streptavidin beads and material bound to the beads was eluted and separate by SDS-PAGE followed by Western blot analysis for JNK.
A375 cells (ATCC® CRL-1619™) were pre-treated with 1 μM compound for the indicated amounts of time. Remove the medium and wash 3 times with PBS. Resuspend the cell pellet with 1 mL Lysis Buffer (1% NP-40, 1% CHAPS, 25 mM Tris, 150 mM NaCl, Phosphatase Inhibitor Cocktail, Roche 04906845001, and Protease Inhibitor Cocktail Roche 11836170001). Rotate end-to-end for 30 min at 4° C. Lysates were cleared by centrifugation at 14000 rpm for 15 min in the Eppendorf. The cleared lysates gel filtered into Kinase Buffer (0.1% NP-40, 20 mM HEPES, 150 mM NaCl, Phosphatase Inhibitor Cocktail, and Protease Inhibitor Cocktail) using Bio-Rad 10DG colums. The total protein concentration of the gel-filtered lysate should be around 5-15 mg/ml. […]
In order to evaluate the kinetics with which JNK-IN-5 could covalently modify JNK in cells, a pulse-chase assay was developed . […] Streptavidin affinity chromatography is then used to isolate all biotinylated proteins and JNK protein is detected following SDS-PAGE and Western blotting (FIG. 8). […]

[3] = test system: c-Jun phosphorylation; assay: LanthaScreen TR-FRET cell assay for c-Jun phosphorylation in HeLa cells; format: cell-based; settings: Homo sapiens; for pIC50: HeLa cells, rounded values of the text, read-out: IC50 for inhibiting c-Jun phosphorylation in HeLa cells; for EC50: Hela cells, TNF-α stimulation, read-out: p-c-Jun EC50 (nM) Hela
Experimental: Phosphorylation was determined by measuring the time resolved FRET (TR-FRET) between a terbium labeled phospho-c-Jun specific antibody and GFP. The cells were plated in white tissue culture treated 384 well plates at a density of 10,000 cell per well in 32 μL assay medium (Opti-MEM®, supplemented with 0.5% charcoal/dextran-treated FBS, 100 U/ml penicillin and 100 μg/ml streptomycin, 0.1 mM nonessential amino acids, 1 mM sodium pyruvate, 25 mM Hepes, pH 7.3, and lacking phenol red). After overnight incubation, cells were pretreated for 90 minutes with compound (at indicated concentration) diluted in 4 μL assay buffer followed by 30 min of stimulation with 5 ng/ml of TNF-α in 4 μL assay buffer (final assay volume was 40 μl). The medium was then removed by aspiration, and the cells were lysed by adding 20 μl of lysis buffer (20 mM Tris-HCl, pH 7.6, 5 mM EDTA, 1% Nonidet P-40 substitute, 5 mM NaF, 150 mM NaCl, and 1:100 protease and phosphatase inhibitor mix, SIGMA P8340 and P2850, respectively). The lysis buffer included 2 nM of the terbium-labeled anti-c-Jun (pSer73) detection antibodies (Life Technologies). After allowing the assay to equilibrate for 60 minutes at room temperature, TR-FRET emission ratios were determined on a BMG Pherastar fluorescence plate reader (BMG Labtech, Cary, N.C.) using the following parameters: excitation at 340 nm; emission at 520 nm and 490 nm; 100 μs lag time; 200 μs integration time; and emission ratio=Em520/Em490. All data were analyzed and plotted using Graphpad Prism 4.
(§1) In parallel with biochemical evaluation, the ability of the compounds to inhibit JNK activity in cells was investigated using two independent assays formats. This is a critical issue because there are several reported JNK inhibitors with nanomolar biochemical potency that translate into micromolar cellular inhibitors. The most well characterized direct phosphorylation substrate of JNK is the transcription factor c-Jun.

[4] = molecular target: JNK3 (Homo sapiens, UniProt P53779); assay: Biochemical JNK3 kinase inhibition (Z'-lyte format); settings: Table 2
[5] = molecular target: JNK1 (Homo sapiens, UniProt P45983); assay: Biochemical JNK1 kinase inhibition (Z'-lyte format); settings: Table 2
[6] = test system: c-Jun phosphorylation; assay: High throughput microscopy of c-Jun phosphorylation in A375 cells; format: cell-based; settings: Homo sapiens, A-375; for EC50: read-out: p-c-Jun EC50 (nM) A375; for pIC50: rounded values of the text, read-out: IC50 for inhibiting c-Jun phosphorylation in A375 cells
Experimental: (§2) Cells were fixed in 2% paraformaldehyde for 10 min at room temperature and washed with PBS-T (Phosphate Buffered Saline, 0.1% Tween 20). Cells were permeabilized in methanol for 10 min at room temperature, washed with PBS-T, and blocked in Odyssey Blocking Buffer (LI-COR Biosciences) for 1 hour at room temperature. Cells were incubated overnight at 4° C. with antibody specific for Erk1/2(pT202/pY204), Akt(pS473), c-Jun(pS73), pP38(T180/Y182) and pSTAT3(Y705) (Cell Signaling Technology), pRSK1(S380) and pMSK1(S376) (Epitomics), and NF-κB (Santa Cruz Biotechnology) diluted 1:400 in Odyssey Blocking Buffer. […] Cells were washed twice with PBS and imaged in an imageWoRx high-throughput microscope (Applied Precision). Data were plotted using DataPflex.
as §1

[7] = test system: phosphorylation of RSK; assay: High-throughput microscopy, phosphorylation of RSK; format: cell-based; settings: Homo sapiens, A-375, A375 cells, anisomycin stimulation, read-out: Cellular EC50 pRSK
Experimental: (§3) A375 cells were stimulated with anisomycin (FIGS. 14A and 14C to 14F), IGF-1 (FIG. 14B), IL-6 (FIG. 14G), and TNF-α (FIG. 14H) for sixty minutes. The output of multiple signaling pathways was measured using high throughput microscopy at multiple concentrations of four JNK inhibitors and a control compound specific to each pathway DMSO (FIG. 14A), MK2206 (allosteric Akt inhibitor, Haoyuan Chemexpress Co., Limited. Hirai, et al., 2010) (FIG. 14B), PD0325901 (allosteric Mek inhibitor, Haoyuan Chemexpress Co., Limited. Barrett, et al., 2008) (FIGS. 14C and 14D), SB239063 (ATP-competitive p38 inhibitor, Haoyuan Chemexpress Co., Limited. Underwood et al., 2000) (FIGS. 14E and 14F), KIN001-040 (ATP-competitive JAK1,2,3 inhibitor, Haoyuan Chemexpress Co., Limited. Thompson et al., 2002) (FIG. 14G), and KIN001-208 (IKK inhibitor VIII, Haoyuan Chemexpress Co., Limited., Murata, et al., 2004) (FIG. 14H).
(§4) Cells were plated at 7500 cells/well in 96-well microscopy plates (Corning) in recommended media for 24 hours, and then starved in media lacking serum for 16 hours. Cells were pre-treated for 180 minutes with 10-fold stock solutions of JNK inhibitors and for 10 min with control compounds MK2206, PD0325901, SB239063, KIN040, and KIN208 and treated with 10-fold stock solutions of IGF-1, IL-6, TNF-α (all PeproTech), or anisomycin for 60 minutes. Cells were fixed in 2% paraformaldehyde for 10 min at room temperature and washed with PBS-T (Phosphate Buffered Saline, 0.1% Tween 20). Cells were permeabilized in methanol for 10 min at room temperature, washed with PBS-T, and blocked in Odyssey Blocking Buffer (LI-COR Biosciences) for 1 hour at room temperature. Cells were incubated overnight at 4° C. with antibody specific for Erk1/2(pT202/pY204), Akt(pS473), c-Jun(pS73), pP38(T180/Y182) and pSTAT3(Y705) (Cell Signaling Technology), pRSK1(S380) and pMSK1(S376) (Epitomics), and NF-κB (Santa Cruz Biotechnology) diluted 1:400 in Odyssey Blocking Buffer. Cells were washed three times in PBS-T and incubated with rabbit-specific secondary antibody labeled with Alexa Fluor 647 (Invitrogen) diluted 1:2000 in Odyssey Blocking Buffer. Cells were washed once in PBS-T and once in PBS and incubated in 250 ng/ml Hoechst 33342 (Invitrogen) and 1:1000 Whole Cell Stain (blue; Thermo Scientific) solution. Cells were washed twice with PBS and imaged in an imageWoRx high-throughput microscope (Applied Precision). Data were plotted using DataPflex. […]

[8] = test system: phosphorylation of Msk1; assay: High-throughput microscopy, phosphorylation of Msk1; format: cell-based; settings: Homo sapiens, A-375, A375 cells, anisomycin stimulation, read-out: Cellular EC50 pMSK1
Experimental: A375 cells were stimulated with anisomycin (FIGS. 14A and 14C to 14F), IGF-1 (FIG. 14B), IL-6 (FIG. 14G), and TNF-α (FIG. 14H) for sixty minutes.
as §2

[9] = test system: phosphorylation of Erk; assay: High-throughput microscopy, phosphorylation of Erk; format: cell-based; settings: Homo sapiens, A-375, A375 cells, anisomycin stimulation, read-out: Cellular EC50 pErk
Experimental: as §3, §4

[10] = test system: phosphorylation of STAT3; assay: High-throughput microscopy, phosphorylation of STAT3; format: cell-based; settings: Homo sapiens, A-375, A375 cells, IL-6 stimulation, read-out: Cellular EC50 pSTAT3
Experimental: as §3, §4

[11] = test system: panel of 442 distinct kinases; assay: KINOMEscan kinase-binding panel; settings: concentration of 1.0 μM
[12] = molecular target: additional kinase targets; assay: Follow-up enzymatic IC50 or Kd on potential additional kinase targets; settings: FIG. 12
Source text: Scores were obtained from the profiling against a […] using Kinome Scan™ technology as illustrated in FIG. 11.
To complement the KiNativ profiling, the in vitro kinase selectivity of several key compounds was comprehensively evaluated by two complementary approaches: a kinase-binding assays against a panel of 442 distinct kinases using the KINOMEscan methodology (DiscoverX) and a standard radioactivity-based enzymatic assays against a panel of 124 kinases (The National Centre for Protein Kinase Profiling in Dundee). […] It was attempted to confirm all these potent binding targets using either an enzymatic kinase assay or through the measurement of a dissociation constant to the kinase in question.

[13] = test system: phosphorylation of p38; assay: High-throughput microscopy, phosphorylation of p38; format: cell-based; settings: Homo sapiens, A-375, A375 cells, anisomycin stimulation, read-out: Cellular EC50 pP38
Experimental: as §3, §4

[14] = test system: phosphorylation of Akt; assay: High-throughput microscopy, phosphorylation of Akt; format: cell-based; settings: Homo sapiens, A-375, A375 cells, IGF-1 stimulation, read-out: Cellular EC50 pAkt
Experimental: as §3, §4

[15] = test system: NF-kB nuclear translocation; assay: High-throughput microscopy, NF-kB nuclear translocation; format: cell-based; settings: Homo sapiens, A-375, A375 cells, TNF-α stimulation, read-out: Cellular EC50 NF-kB
Experimental: as §3, §4

[16] = A375 cells, anisomycin stimulation

Sequence of JNK1 (P45983 whole entry): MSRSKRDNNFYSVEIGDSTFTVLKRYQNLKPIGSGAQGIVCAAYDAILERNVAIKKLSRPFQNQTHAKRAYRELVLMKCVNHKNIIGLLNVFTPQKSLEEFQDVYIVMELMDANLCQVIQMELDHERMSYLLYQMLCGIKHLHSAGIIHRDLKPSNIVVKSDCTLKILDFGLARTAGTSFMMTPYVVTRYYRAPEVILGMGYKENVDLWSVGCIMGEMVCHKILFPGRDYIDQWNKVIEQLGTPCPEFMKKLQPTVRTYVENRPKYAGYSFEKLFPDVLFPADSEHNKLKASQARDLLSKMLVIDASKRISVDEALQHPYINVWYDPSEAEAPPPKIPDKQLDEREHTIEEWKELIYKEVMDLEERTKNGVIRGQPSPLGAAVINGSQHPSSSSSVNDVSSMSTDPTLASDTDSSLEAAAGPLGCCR
Sequence of JNK2 (P45984 whole entry): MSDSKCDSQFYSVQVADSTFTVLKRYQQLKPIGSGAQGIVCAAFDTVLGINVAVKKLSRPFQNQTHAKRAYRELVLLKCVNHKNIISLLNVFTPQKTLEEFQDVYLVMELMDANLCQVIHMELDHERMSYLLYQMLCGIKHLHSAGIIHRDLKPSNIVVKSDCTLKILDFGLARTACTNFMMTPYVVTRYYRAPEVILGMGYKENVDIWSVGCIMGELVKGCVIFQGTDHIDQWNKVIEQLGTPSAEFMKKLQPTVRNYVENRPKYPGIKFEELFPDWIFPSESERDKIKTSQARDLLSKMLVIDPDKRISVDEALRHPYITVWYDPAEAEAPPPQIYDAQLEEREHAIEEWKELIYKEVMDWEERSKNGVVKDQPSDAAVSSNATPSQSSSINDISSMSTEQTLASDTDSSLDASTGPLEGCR
Sequence of JNK3 (P53779 whole entry): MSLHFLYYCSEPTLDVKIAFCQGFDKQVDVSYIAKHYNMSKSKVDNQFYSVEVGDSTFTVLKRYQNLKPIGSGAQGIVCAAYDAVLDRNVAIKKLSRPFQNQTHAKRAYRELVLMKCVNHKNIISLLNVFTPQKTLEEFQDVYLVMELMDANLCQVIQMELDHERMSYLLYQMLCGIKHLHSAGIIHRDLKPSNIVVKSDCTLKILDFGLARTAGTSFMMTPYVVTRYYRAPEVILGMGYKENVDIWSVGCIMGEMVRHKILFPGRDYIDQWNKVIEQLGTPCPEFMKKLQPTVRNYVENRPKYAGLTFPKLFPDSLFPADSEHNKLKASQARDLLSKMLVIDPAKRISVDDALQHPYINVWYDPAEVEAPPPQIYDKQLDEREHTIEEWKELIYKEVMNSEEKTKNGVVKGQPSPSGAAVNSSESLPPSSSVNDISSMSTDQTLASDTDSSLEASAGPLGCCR

Structure (SMILES) | IC50 [1] [nM] | incubation time to fully protect JNK from labeling by ATP-biotin [2] | pIC50 [3] | EC50 [3] [nM] | IC50 [4] [nM] | IC50 [5] [nM] | EC50 [6, 16] [nM] | pIC50 ([6]; A375 cells) | pEC50 ([6]; Table 5, A375, read-out: E50/A375) | pEC50 [7] | pEC50 [8] | pEC50 [9] | pEC50 [10] | number of kinases with binding inhibition of 95% or more [11] | Kd or IC50 against eight additional kinases [12] [nM] | pEC50 [13] | pEC50 [14] | pEC50 [15] | pEC50 ([6]; A375 cells, anisomycin stimulation, high-throughput microscopy, Table 4, read-out: Cellular EC50 pc-Jun)
C=CC(=O)Nc1cccc(C(=O)Nc2ccc(Nc3nccc(-c4cccnc4)n3)cc2)c1 [JNK-IN-5] | 1.93 | approximately three | ~7.00 | 118 | 0.96 | 2.11 | 32 | ~7.52 | 7.49 | – | – | – | – | – | – | – | – | – | –
CN(C)C/C=C/C(=O)Nc1cccc(C(=O)Nc2ccc(Nc3nccc(-c4cccnc4)n3)cc2)c1 [JNK-IN-7] | – | – | – | 130 | – | 1.54 | – | – | – | < 5.00 | < 5.00 | < 5.00 | < 5.00 | approximately 14 kinases | ≤ 100 | < 5.00 | < 5.00 | < 5.00 | –
CN(C)C/C=C/C(=O)Nc1cccc(C(=O)Nc2ccc(Nc3nccc(-c4c(-c5ccccc5)nn5ccccc45)n3)cc2)c1 [JNK-IN-11] | 0.5 | – | ~7.52 | 48 | 0.5 | 1.34 | 8.6 | ~8.00 | – | 7.70 | – | 7.72 | < 5.00 | – | – | 7.82 | < 5.00 | < 5.00 | > 8.00
